This is an account of results in patent publication US20110287045A1, “Enhanced immune response against infections” (priority 2010, published 2011).

“Also recorded” adds a separate entry of the source.

The target in one test is integrin αVβ3 (Homo sapiens, UniProt P05106+P06756). As to conditions: read-out: dissociation constants (Kd), integrin αVβ3; cited from earlier work.
Test [1] has as its system platelets from integrin β3 knockout mice. Briefly: Flow cytometry assay of platelet activation, platelets from integrin β3 knockout mice. It counts as cell-based, mouse. As to conditions: β3−/− gel-filtered platelets. Here is the method:
(§1) Gel-filtered human or mouse platelets were prepared from platelet-rich plasma obtained from blood collected in 0.38% sodium citrate via heart puncture. 1×10^7gel-filtered platelets were incubated under different stimulation conditions at 37° C. for 30 minutes. For in vitro platelet activation, Tat 20 ng/ml, CCL5 10 μg/ml, or control Ad18-66 20 ng/ml were used. To test the role of chemokine receptor CCR3, calcium flux and cAMP in Tat-induced platelet activation, CCR3 inhibitor SB328437 3 nM, calcium flux inhibitor EGTA 100 μM and prostaglandin E1 (PGE1, a cAMP elevator) 5 μM were used separately to treat platelets at 37° C. for 30 minutes before incubation with Tat, CCL5 or control as above. To test the role of β3 integrin, platelets from β3 integrin knock out mice were incubated with Tat, CCL5, thrombin, and control. Treated platelets were then stained with anti-CD154-FITC and anti-CD62P-PE antibody on ice for one hour. Fluorescent-labeled platelets were measured by flow cytometry (FACScan, Becton-Dickinson, Calif.).
For orientation: A flow cytometer gives signals particle by particle.

The test system of the next test is platelets. The test can be described thus: Inhibitor pre-treatment before agonist-induced platelet activation (flow cytometry). As to conditions: for inhibition of CCL5-induced platelet activation / inhibition of Tat-induced platelet activation: pre-treatment 37° C. 30 minutes, SB328437 3 nM, EGTA 100 μM, PGE1 5 μM; for inhibition of CCL5-induced platelet activation: CCL5 10 μg/ml; for inhibition of Tat-induced platelet activation: Tat 20 ng/ml. It counts as cell-based. Here is the method:
as §1

integrin αVβ3, sequence (P06756 31-889 limits assumed): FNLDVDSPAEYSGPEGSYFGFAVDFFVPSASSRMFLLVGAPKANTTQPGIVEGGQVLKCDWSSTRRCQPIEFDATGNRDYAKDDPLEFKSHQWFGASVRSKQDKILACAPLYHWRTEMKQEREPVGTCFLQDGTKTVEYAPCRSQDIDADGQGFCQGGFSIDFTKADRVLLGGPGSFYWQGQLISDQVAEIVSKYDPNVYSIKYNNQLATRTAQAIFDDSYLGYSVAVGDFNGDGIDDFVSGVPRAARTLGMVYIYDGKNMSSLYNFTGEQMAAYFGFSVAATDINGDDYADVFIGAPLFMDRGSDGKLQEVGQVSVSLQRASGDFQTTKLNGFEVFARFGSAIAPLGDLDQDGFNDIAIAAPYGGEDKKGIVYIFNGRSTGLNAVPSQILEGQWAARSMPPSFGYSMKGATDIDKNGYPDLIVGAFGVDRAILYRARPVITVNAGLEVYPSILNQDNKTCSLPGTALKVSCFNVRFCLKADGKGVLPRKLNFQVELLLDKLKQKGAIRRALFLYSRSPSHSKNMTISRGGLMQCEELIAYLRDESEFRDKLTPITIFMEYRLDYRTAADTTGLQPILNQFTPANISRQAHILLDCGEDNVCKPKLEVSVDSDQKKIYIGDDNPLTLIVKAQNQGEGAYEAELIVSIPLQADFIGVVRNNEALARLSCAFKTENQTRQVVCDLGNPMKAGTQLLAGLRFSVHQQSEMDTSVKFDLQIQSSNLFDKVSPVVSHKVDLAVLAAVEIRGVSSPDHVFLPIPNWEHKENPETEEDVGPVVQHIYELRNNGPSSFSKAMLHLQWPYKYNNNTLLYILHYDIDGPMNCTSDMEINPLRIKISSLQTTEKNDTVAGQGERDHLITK
integrin αVβ3, sequence (P06756 891-1048 partner limits assumed): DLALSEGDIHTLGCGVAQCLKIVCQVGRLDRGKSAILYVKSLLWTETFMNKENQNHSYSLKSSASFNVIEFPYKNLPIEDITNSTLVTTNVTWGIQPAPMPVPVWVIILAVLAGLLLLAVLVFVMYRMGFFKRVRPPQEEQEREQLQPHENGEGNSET
integrin αVβ3, sequence (P05106 27-788): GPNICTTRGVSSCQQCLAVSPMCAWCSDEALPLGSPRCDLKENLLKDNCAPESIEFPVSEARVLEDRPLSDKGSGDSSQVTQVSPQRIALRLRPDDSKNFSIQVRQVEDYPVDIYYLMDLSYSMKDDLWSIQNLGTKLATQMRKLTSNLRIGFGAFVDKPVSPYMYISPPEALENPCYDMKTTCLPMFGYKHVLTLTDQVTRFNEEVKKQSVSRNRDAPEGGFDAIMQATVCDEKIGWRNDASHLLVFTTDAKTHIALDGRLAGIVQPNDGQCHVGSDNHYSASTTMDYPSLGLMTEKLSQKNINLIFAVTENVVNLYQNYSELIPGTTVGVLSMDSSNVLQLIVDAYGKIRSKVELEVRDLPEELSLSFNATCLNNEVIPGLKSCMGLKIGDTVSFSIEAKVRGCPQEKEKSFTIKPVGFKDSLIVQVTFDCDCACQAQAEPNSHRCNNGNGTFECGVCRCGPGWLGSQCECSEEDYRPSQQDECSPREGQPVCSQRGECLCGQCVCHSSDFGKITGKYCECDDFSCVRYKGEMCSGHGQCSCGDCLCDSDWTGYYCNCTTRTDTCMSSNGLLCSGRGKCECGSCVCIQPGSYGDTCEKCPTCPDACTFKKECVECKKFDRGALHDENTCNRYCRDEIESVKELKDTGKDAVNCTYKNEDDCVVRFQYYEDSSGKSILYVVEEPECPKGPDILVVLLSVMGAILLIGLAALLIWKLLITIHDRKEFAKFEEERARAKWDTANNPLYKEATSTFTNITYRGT

For the molecule “vitronectin: integrin αVβ3 ligand, literature comparator”, the Kd (as a rule, the concentration at which binding is half-saturated) with integrin αVβ3 was 64 nM. As for thrombin, the “platelet activation in integrin β3 deficient mouse platelets” value in test [1] is “still induces platelet activation”. Turning to `CCCCC[C@H](O)/C=C/[C@H]1[C@H](O)CC(=O)[C@@H]1CCCCCCC(=O)O` [PGE1, prostaglandin E1], in the test with platelets, the “inhibition of CCL5-induced platelet activation” value is “partially inhibited” and the “inhibition of Tat-induced platelet activation” value is reported as “No significant inhibition”. Also, in the test with platelets (listed as prostaglandin E1 (PGE1)), the “inhibition of CCL5-induced platelet activation” value is “partially blocks”. Turning to fibrinogen, the Kd at integrin αVβ3 was 27 nM. In the case of `O=C(O)CN(CCOCCOCCN(CC(=O)O)CC(=O)O)CC(=O)O` [EGTA], in the test with platelets, the “inhibition of CCL5-induced platelet activation” value is on record as “completely inhibited; also recorded: completely blocks” and the “inhibition of Tat-induced platelet activation” value is “completely inhibited”.

As to `COC(=O)[C@H](Cc1ccc([N+](=O)[O-])cc1)NC(=O)c1cccc2ccccc12` [SB328437], in the test on platelets (SB328437 pre-treatment, FIG. 9 in β3−/− platelets), the “inhibition of thrombin-induced platelet activation” value is listed as “did not inhibit; also recorded: do not inhibit”. For the same molecule, in the test with platelets, the “inhibition of CCL5-induced platelet activation” value is listed as “completely inhibited” and the “inhibition of Tat-induced platelet activation” value is “completely inhibited”.
